From PubChem BioAssay (NCI)
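Compound exposure: 48 hours, 5 concentrations, 96-well plates. TGI: total growth inhibition.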

What was measured:
Assay in all cases: growth of human tumour cells (NCI), 48 h
OVCAR-3 ovarian = system: OVCAR-3 ovarian
SK-OV-3 ovarian = system: SK-OV-3 ovarian
SNB-19 CNS = system: SNB-19 CNS
K-562 leukemia = system: K-562 leukemia
RPMI-8226 leukemia = system: RPMI-8226 leukemia
NCI/ADR-RES ovarian = system: NCI/ADR-RES ovarian
KM12 colon = system: KM12 colon
TK-10 renal = system: TK-10 renal
OVCAR-8 ovarian = system: OVCAR-8 ovarian
MCF7 breast = system: MCF7 breast
MOLT-4 leukemia = system: MOLT-4 leukemia
MDA-MB-231 breast = system: MDA-MB-231 breast
ACHN renal = system: ACHN renal
T-47D breast = system: T-47D breast
UACC-257 melanoma = system: UACC-257 melanoma
SR leukemia = system: SR leukemia
UO-31 renal = system: UO-31 renal
UACC-62 melanoma = system: UACC-62 melanoma
SW-620 colon = system: SW-620 colon
SNB-75 CNS = system: SNB-75 CNS
RXF 393 renal = system: RXF 393 renal
SN12C renal = system: SN12C renal
EKVX NSCLC = system: EKVX NSCLC
DU-145 prostate = system: DU-145 prostate
BT-549 breast = system: BT-549 breast
HT29 colon = system: HT29 colon
MDA-MB-435 = system: MDA-MB-435
IGROV1 ovarian = system: IGROV1 ovarian
SK-MEL-5 melanoma = system: SK-MEL-5 melanoma
SK-MEL-2 melanoma = system: SK-MEL-2 melanoma
OVCAR-4 ovarian = system: OVCAR-4 ovarian
U251 CNS = system: U251 CNS
NCI-H522 lung = system: NCI-H522 lung
CAKI-1 renal = system: CAKI-1 renal
PC-3 prostate = system: PC-3 prostate
CCRF-CEM leukemia = system: CCRF-CEM leukemia
SF-295 CNS = system: SF-295 CNS
SF-539 CNS = system: SF-539 CNS
NCI-H460 lung = system: NCI-H460 lung
786-0 renal = system: 786-0 renal
HOP-62 NSCLC = system: HOP-62 NSCLC
A549 NSCLC = system: A549 NSCLC
NCI-H226 lung = system: NCI-H226 lung
LOX IMVI melanoma = system: LOX IMVI melanoma
HCT-116 colon = system: HCT-116 colon
HCT-15 colon = system: HCT-15 colon
COLO 205 colon = system: COLO 205 colon
SK-MEL-28 melanoma = system: SK-MEL-28 melanoma
M14 melanoma = system: M14 melanoma
OVCAR-5 ovarian = system: OVCAR-5 ovarian
SF-268 CNS = system: SF-268 CNS
HL-60(TB) leukemia = system: HL-60(TB) leukemia
HS 578T breast = system: HS 578T breast
NCI-H23 lung = system: NCI-H23 lung
MDA-N = system: MDA-N
MALME-3M melanoma = system: MALME-3M melanoma
HCC-2998 colon = system: HCC-2998 colon
HOP-92 NSCLC = system: HOP-92 NSCLC
A498 renal = system: A498 renal

O=C1CC(n2ccnc2)c2c(Cl)sc(Cl)c21 (centres undefined)
TGI (OVCAR-3 ovarian): 30.3 µM | TGI (SK-OV-3 ovarian): > 79.5 µM | TGI (SNB-19 CNS): 38.3 µM | TGI (K-562 leukemia): > 38.1 µM | TGI (RPMI-8226 leukemia): > 100 µM | TGI (NCI/ADR-RES ovarian): 71.5 µM | TGI (KM12 colon): 33.9 µM | TGI (TK-10 renal): 45.1 µM | TGI (OVCAR-8 ovarian): 27.8 µM | TGI (MCF7 breast): 28 µM | TGI (MOLT-4 leukemia): > 24 µM | TGI (MDA-MB-231 breast): 36.5 µM | TGI (ACHN renal): 33.2 µM | TGI (T-47D breast): 53.2 µM | TGI (UACC-257 melanoma): > 51.1 µM | TGI (SR leukemia): > 19.8 µM | TGI (UO-31 renal): 27 µM | TGI (UACC-62 melanoma): 32 µM | TGI (SW-620 colon): > 33.1 µM | TGI (SNB-75 CNS): 52 µM | TGI (RXF 393 renal): 33.9 µM | TGI (SN12C renal): 37.3 µM | TGI (EKVX NSCLC): 38.7 µM | TGI (DU-145 prostate): 30.6 µM | TGI (BT-549 breast): 32.8 µM | TGI (HT29 colon): 43.6 µM | TGI (MDA-MB-435): 49.6 µM | TGI (IGROV1 ovarian): 26.6 µM | TGI (SK-MEL-5 melanoma): 41.2 µM | TGI (SK-MEL-2 melanoma): 54.9 µM | TGI (OVCAR-4 ovarian): 42.3 µM | TGI (U251 CNS): 35.6 µM | TGI (NCI-H522 lung): 17.1 µM | TGI (CAKI-1 renal): 36.1 µM | TGI (PC-3 prostate): 36.7 µM | TGI (CCRF-CEM leukemia): > 22.6 µM | TGI (SF-295 CNS): > 78.1 µM | TGI (SF-539 CNS): 35.4 µM | TGI (NCI-H460 lung): > 73.9 µM | TGI (786-0 renal): > 37.9 µM | TGI (HOP-62 NSCLC): 51.9 µM | TGI (A549 NSCLC): > 64.7 µM | TGI (NCI-H226 lung): 77.1 µM | TGI (LOX IMVI melanoma): 19.2 µM | TGI (HCT-116 colon): 29.5 µM | TGI (HCT-15 colon): 28.1 µM | TGI (COLO 205 colon): 33.8 µM | TGI (SK-MEL-28 melanoma): > 54.7 µM | TGI (M14 melanoma): 35.3 µM | TGI (OVCAR-5 ovarian): 48.1 µM | TGI (SF-268 CNS): 59.3 µM | TGI (HL-60(TB) leukemia): > 100 µM | TGI (HS 578T breast): > 78.8 µM | TGI (NCI-H23 lung): 30.9 µM | TGI (MDA-N): 50.4 µM | TGI (MALME-3M melanoma): 36.1 µM

Nc1ccc(-c2nc3ccccc3s2)cc1CO
TGI (OVCAR-3 ovarian): > 100 µM | TGI (SK-OV-3 ovarian): > 100 µM | TGI (SNB-19 CNS): > 100 µM | TGI (HCC-2998 colon): > 100 µM | TGI (K-562 leukemia): > 100 µM | TGI (RPMI-8226 leukemia): > 100 µM | TGI (NCI/ADR-RES ovarian): > 100 µM | TGI (KM12 colon): > 100 µM | TGI (TK-10 renal): > 100 µM | TGI (OVCAR-8 ovarian): > 100 µM | TGI (MOLT-4 leukemia): > 100 µM | TGI (MDA-MB-231 breast): > 100 µM | TGI (ACHN renal): > 100 µM | TGI (T-47D breast): > 100 µM | TGI (UACC-257 melanoma): > 100 µM | TGI (SR leukemia): > 100 µM | TGI (UO-31 renal): > 100 µM | TGI (UACC-62 melanoma): > 100 µM | TGI (SW-620 colon): > 100 µM | TGI (SNB-75 CNS): > 100 µM | TGI (RXF 393 renal): > 100 µM | TGI (SN12C renal): > 100 µM | TGI (EKVX NSCLC): > 49.2 µM | TGI (DU-145 prostate): > 100 µM | TGI (BT-549 breast): > 100 µM | TGI (HT29 colon): > 100 µM | TGI (MDA-MB-435): > 100 µM | TGI (IGROV1 ovarian): > 100 µM | TGI (SK-MEL-5 melanoma): > 100 µM | TGI (SK-MEL-2 melanoma): > 100 µM | TGI (OVCAR-4 ovarian): > 100 µM | TGI (U251 CNS): > 100 µM | TGI (NCI-H522 lung): > 100 µM | TGI (CAKI-1 renal): > 100 µM | TGI (PC-3 prostate): > 100 µM | TGI (CCRF-CEM leukemia): > 100 µM | TGI (SF-295 CNS): > 100 µM | TGI (HOP-92 NSCLC): > 100 µM | TGI (NCI-H460 lung): > 100 µM | TGI (786-0 renal): > 100 µM | TGI (HOP-62 NSCLC): > 90.4 µM | TGI (A498 renal): > 100 µM | TGI (A549 NSCLC): > 100 µM | TGI (LOX IMVI melanoma): > 100 µM | TGI (HCT-116 colon): > 100 µM | TGI (HCT-15 colon): > 100 µM | TGI (COLO 205 colon): > 100 µM | TGI (SK-MEL-28 melanoma): > 100 µM | TGI (M14 melanoma): > 100 µM | TGI (OVCAR-5 ovarian): > 100 µM | TGI (SF-268 CNS): > 100 µM | TGI (HL-60(TB) leukemia): > 100 µM | TGI (HS 578T breast): > 100 µM | TGI (NCI-H23 lung): > 100 µM | TGI (MDA-N): > 100 µM | TGI (MALME-3M melanoma): > 100 µM

CC(CC(=O)N1C2CC3CCC2(CS1(=O)=O)C3(C)C)[Si](C)(C)C (centres undefined)
TGI (OVCAR-3 ovarian): > 100 µM | TGI (SNB-19 CNS): > 100 µM | TGI (HCC-2998 colon): > 100 µM | TGI (K-562 leukemia): > 100 µM | TGI (RPMI-8226 leukemia): > 100 µM | TGI (NCI/ADR-RES ovarian): > 100 µM | TGI (KM12 colon): > 100 µM | TGI (TK-10 renal): > 100 µM | TGI (OVCAR-8 ovarian): > 100 µM | TGI (MCF7 breast): > 100 µM | TGI (MOLT-4 leukemia): > 100 µM | TGI (MDA-MB-231 breast): > 100 µM | TGI (ACHN renal): > 100 µM | TGI (T-47D breast): > 100 µM | TGI (UACC-257 melanoma): > 100 µM | TGI (SR leukemia): > 100 µM | TGI (UO-31 renal): > 100 µM | TGI (SW-620 colon): > 100 µM | TGI (SNB-75 CNS): > 100 µM | TGI (RXF 393 renal): > 100 µM | TGI (SN12C renal): > 100 µM | TGI (EKVX NSCLC): > 100 µM | TGI (DU-145 prostate): > 100 µM | TGI (BT-549 breast): > 100 µM | TGI (HT29 colon): > 100 µM | TGI (MDA-MB-435): > 100 µM | TGI (IGROV1 ovarian): > 100 µM | TGI (SK-MEL-5 melanoma): > 100 µM | TGI (U251 CNS): > 100 µM | TGI (NCI-H522 lung): > 100 µM | TGI (CAKI-1 renal): > 100 µM | TGI (PC-3 prostate): > 100 µM | TGI (CCRF-CEM leukemia): > 100 µM | TGI (SF-295 CNS): > 100 µM | TGI (SF-539 CNS): > 100 µM | TGI (NCI-H460 lung): > 100 µM | TGI (786-0 renal): > 100 µM | TGI (HOP-62 NSCLC): > 100 µM | TGI (A549 NSCLC): > 100 µM | TGI (NCI-H226 lung): > 100 µM | TGI (LOX IMVI melanoma): > 100 µM | TGI (HCT-116 colon): > 100 µM | TGI (HCT-15 colon): > 100 µM | TGI (COLO 205 colon): > 100 µM | TGI (SK-MEL-28 melanoma): > 100 µM | TGI (M14 melanoma): > 100 µM | TGI (SF-268 CNS): > 100 µM | TGI (HL-60(TB) leukemia): > 100 µM | TGI (HS 578T breast): > 100 µM | TGI (NCI-H23 lung): > 100 µM | TGI (MDA-N): > 100 µM | TGI (MALME-3M melanoma): > 100 µM
